Results reported in ChEMBL document CHEMBL1158195, “Antitumor germacranolides from Anvillea garcinii” (1996).
In brackets after ≈: the same amount, converted by molar mass. Activity calls are given as the source filed them. No cut-off for these calls is given here.

Tests used:
[1] = tested on: CCRF-CEM; assay: Cytotoxicity against human CCRF-CEM cells; format: functional; details: read-out: ED50 (the source's name)
[2] = tested on: DU-145; assay: Cytotoxicity against human DU145 cells; format: functional; details: read-out: ED50 (the source's name)
[3] = tested on: IGROV-1; assay: Cytotoxicity against human IGROV1 cells; format: functional; details: read-out: ED50 (the source's name)
[4] = tested on: MDA-MB-231; assay: Cytotoxicity against human MDA-MB-231 cells; format: functional; details: read-out: ED50 (the source's name)
[5] = tested on: HCT-116; assay: Cytotoxicity against human HCT116 cells; format: functional; details: read-out: ED50 (the source's name)
[6] = tested on: HOP-62; assay: Cytotoxicity against human HOP62 cells; format: functional; details: read-out: ED50 (the source's name)
[7] = tested on: MOLT-4; assay: Cytotoxicity against human MOLT4 cells; format: functional; details: read-out: ED50 (the source's name)
[8] = tested on: UO-31; assay: Cytotoxicity against human UO31 cells; format: functional; details: read-out: ED50 (the source's name)
[9] = tested on: LOX IMVI; assay: Cytotoxicity against human LOXIMVI cells; format: functional; details: read-out: ED50 (the source's name)
[10] = tested on: SF-268; assay: Cytotoxicity against human SF268 cells; format: functional; details: read-out: ED50 (the source's name)
[11] = tested on: OVCAR-8; assay: Cytotoxicity against human OVCAR8 cells; format: functional; details: read-out: ED50 (the source's name)
[12] = tested on: ACHN; assay: Cytotoxicity against human ACHN cells; format: functional; details: read-out: ED50 (the source's name)
[13] = tested on: SW-620; assay: Cytotoxicity against human SW620 cells; format: functional; details: read-out: ED50 (the source's name)
[14] = tested on: T47D; assay: Cytotoxicity against human T47D cells; format: functional; details: read-out: ED50 (the source's name)
[15] = tested on: NCI-H522; assay: Cytotoxicity against human NCI-H522 cells; format: functional; details: read-out: ED50 (the source's name)
[16] = tested on: PC-3; assay: Cytotoxicity against human PC3 cells; format: functional; details: read-out: ED50 (the source's name)
[17] = tested on: Human immunodeficiency virus; assay: Antiviral activity against HIV in human H9 cells assessed as virus-induced cytopathic effect; format: functional, organism-based
[18] = tested on: BT-549; assay: Cytotoxicity against human BT549 cells; format: functional; details: read-out: ED50 (the source's name)
[19] = tested on: Malme-3M; assay: Cytotoxicity against human MALME-3M cells; format: functional; details: read-out: ED50 (the source's name)
[20] = tested on: SNB-75; assay: Cytotoxicity against human SNB75 cells; format: functional; details: read-out: ED50 (the source's name)

| Structure (SMILES) | EC50 [1] [µg/mL] | EC50 [2] [µg/mL] | EC50 [3] [µg/mL] | EC50 [4] [µg/mL] | EC50 [5] [µg/mL] | EC50 [6] [µg/mL] | EC50 [7] [µg/mL] | EC50 [8] [µg/mL] | EC50 [9] [µg/mL] | EC50 [10] [µg/mL] | EC50 [11] [µg/mL] | EC50 [12] [µg/mL] | EC50 [13] [µg/mL] | EC50 [14] [µg/mL] | EC50 [15] [µg/mL] | EC50 [16] [µg/mL] | Activity [17] | EC50 [18] [µg/mL] | EC50 [19] [µg/mL] | EC50 [20] [µg/mL] |
| --- | --- | --- | --- | --- | --- | --- | --- | --- | --- | --- | --- | --- | --- | --- | --- | --- | --- | --- | --- | --- |
| C=C1C(=O)O[C@H]2[C@H]1C[C@@H](O)/C(C)=C/CC[C@@]1(C)O[C@@H]21 | 0.84 (≈ 3.18 µM) | 6.73 (≈ 25.5 µM) | 8.63 (≈ 32.6 µM) | 4.49 (≈ 17 µM) | 1.66 (≈ 6.28 µM) | 1.32 (≈ 4.99 µM) | 0.94 (≈ 3.56 µM) | 7.63 (≈ 28.9 µM) | 1.66 (≈ 6.28 µM) | 10.3 (≈ 39 µM) | 4.07 (≈ 15.4 µM) | 1.91 (≈ 7.23 µM) | 1.08 (≈ 4.09 µM) | 1.54 (≈ 5.83 µM) | 0.5 (≈ 1.89 µM) | 11.6 (≈ 44 µM) | inactive | 2.77 (≈ 10.5 µM) | 1.07 (≈ 4.05 µM) |  |
| C=C1C(=O)O[C@H]2[C@H]1C[C@H](O)[C@@]1(C)O[C@@H]1CC[C@@]1(C)O[C@@H]21 | 2.43 (≈ 8.67 µM) | 9.66 (≈ 34.5 µM) | 4.17 (≈ 14.9 µM) |  | 4.65 (≈ 16.6 µM) | 5.74 (≈ 20.5 µM) | 2.83 (≈ 10.1 µM) | 4.79 (≈ 17.1 µM) |  | 12.1 (≈ 43.2 µM) | 5.32 (≈ 19 µM) | 5.07 (≈ 18.1 µM) | 3.81 (≈ 13.6 µM) | 5.4 (≈ 19.3 µM) | 0.78 (≈ 2.78 µM) | 4.98 (≈ 17.8 µM) | inactive | 3.86 (≈ 13.8 µM) | 3.36 (≈ 12 µM) | 22.5 (≈ 80.3 µM) |
| C=C1C(=O)O[C@H]2[C@H]1C[C@@H](O)[C@@]1(C)O[C@@H]1CC[C@@]1(C)O[C@@H]21 | 1.44 (≈ 5.14 µM) | 10.2 (≈ 36.5 µM) |  | 5.35 (≈ 19.1 µM) | 4.96 (≈ 17.7 µM) | 4.82 (≈ 17.2 µM) | 1.67 (≈ 5.96 µM) | 4.76 (≈ 17 µM) | 3.7 (≈ 13.2 µM) | 13.5 (≈ 48.1 µM) | 9.72 (≈ 34.7 µM) | 3.84 (≈ 13.7 µM) | 3.72 (≈ 13.3 µM) |  | 1.53 (≈ 5.46 µM) | 7.59 (≈ 27.1 µM) | inactive |  | 3.28 (≈ 11.7 µM) | 20.8 (≈ 74 µM) |
| C=C1C(=O)O[C@H]2[C@H]1CC(=O)/C(C)=C/CC[C@@]1(C)O[C@@H]21 | 0.05 (≈ 0.191 µM) | 3.3 (≈ 12.6 µM) | 0.94 (≈ 3.58 µM) | 0.17 (≈ 0.648 µM) | 0.45 (≈ 1.72 µM) | 0.63 (≈ 2.4 µM) | 0.07 (≈ 0.267 µM) | 0.28 (≈ 1.07 µM) | 0.11 (≈ 0.419 µM) | 1.73 (≈ 6.6 µM) | 0.78 (≈ 2.97 µM) | 0.3 (≈ 1.14 µM) | 0.21 (≈ 0.801 µM) | 0.45 (≈ 1.72 µM) | 0.15 (≈ 0.572 µM) | 0.9 (≈ 3.43 µM) | inactive | 0.34 (≈ 1.3 µM) | 0.33 (≈ 1.26 µM) | 4.38 (≈ 16.7 µM) |
| C=C1C(=O)O[C@H]2[C@H]1C[C@H](O)/C(C)=C/CC[C@@]1(C)O[C@@H]21 | 0.8 (≈ 3.03 µM) | 5.6 (≈ 21.2 µM) | 3.91 (≈ 14.8 µM) | 4.99 (≈ 18.9 µM) | 3.83 (≈ 14.5 µM) | 4.57 (≈ 17.3 µM) | 0.68 (≈ 2.57 µM) | 3.88 (≈ 14.7 µM) | 2.46 (≈ 9.31 µM) | 7.76 (≈ 29.4 µM) | 4.75 (≈ 18 µM) | 2.21 (≈ 8.36 µM) | 0.55 (≈ 2.08 µM) |  | 0.45 (≈ 1.7 µM) |  | inactive |  | 1.62 (≈ 6.13 µM) | 8.53 (≈ 32.3 µM) |
